Assays:
Assay type in all cases: cell-based
Gal-4 hPPARα = molecular target: T1, Gal-4 hPPARα (Homo sapiens, UniProt Q07869); assay: Gal4-hPPARα transient transfection reporter assay in Cos cells; settings: luciferase reporter, 24 hours with compound, scale 1-5, read-out: Gal-4 hPPAR α EC50 (scaled number)
T1 construct: Plasmids pGal4-hPPARα, pGal4-hPPARγ, pGal4-hPPARδ and pG5-TK-pGL3 were constructed as previously described by Staels, Bart, et al., Nature 1998 Jun; 25
T1 sequence (Q07869 200-468 limits assumed): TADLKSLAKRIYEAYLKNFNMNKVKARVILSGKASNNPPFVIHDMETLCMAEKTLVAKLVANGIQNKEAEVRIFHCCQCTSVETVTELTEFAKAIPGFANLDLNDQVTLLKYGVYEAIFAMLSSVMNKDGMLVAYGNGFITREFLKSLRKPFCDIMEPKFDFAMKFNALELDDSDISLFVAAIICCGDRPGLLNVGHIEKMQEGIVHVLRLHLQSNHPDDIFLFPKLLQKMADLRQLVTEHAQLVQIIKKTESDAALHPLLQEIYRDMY
Method in brief: (§1)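 Cos cells transiently co-transfected with Gal4-hPPAR expression plasmid, pG5-TK-pGL3 luciferase reporter and β-galactosidase control, then treated 24 h with increasing compound concentrations in DMEM containing 0.2% FCS. Luciferase normalised to β-galactosidase; EC50 from curve fit, at least three experiments.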

Gal-4 hPPARγ = molecular target: T2, Gal-4 hPPARγ (Homo sapiens, UniProt P37231); assay: Gal4-hPPARγ transient transfection reporter assay in Cos cells; settings: luciferase reporter, 24 hours with compound, scale 1-5, read-out: Gal-4 hPPAR γ EC50 (scaled number)
T2 construct: Plasmids pGal4-hPPARα, pGal4-hPPARγ, pGal4-hPPARδ and pG5-TK-pGL3 were constructed as previously described by Staels, Bart, et al., Nature 1998 Jun; 25
T2 sequence (P37231 238-505 limits assumed): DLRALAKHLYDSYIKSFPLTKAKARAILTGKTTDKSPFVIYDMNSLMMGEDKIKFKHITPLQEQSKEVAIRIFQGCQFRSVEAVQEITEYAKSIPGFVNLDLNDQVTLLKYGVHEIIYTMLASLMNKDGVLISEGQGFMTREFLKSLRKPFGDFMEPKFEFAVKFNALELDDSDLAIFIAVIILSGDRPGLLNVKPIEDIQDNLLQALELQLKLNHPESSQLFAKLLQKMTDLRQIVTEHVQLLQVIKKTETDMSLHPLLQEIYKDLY
Method in brief: as §1

Gal-4 hPPARβ/δ = molecular target: T3, Gal-4 hPPARβ/δ (Homo sapiens, UniProt Q03181); assay: Gal4-hPPARδ transient transfection reporter assay in Cos cells; settings: luciferase reporter, 24 hours with compound, scale 1-5, read-out: Gal-4 hPPAR β/δ EC50 (scaled number)
T3 construct: Plasmids pGal4-hPPARα, pGal4-hPPARγ, pGal4-hPPARδ and pG5-TK-pGL3 were constructed as previously described by Staels, Bart, et al., Nature 1998 Jun; 25
T3 sequence (Q03181 171-441 limits assumed): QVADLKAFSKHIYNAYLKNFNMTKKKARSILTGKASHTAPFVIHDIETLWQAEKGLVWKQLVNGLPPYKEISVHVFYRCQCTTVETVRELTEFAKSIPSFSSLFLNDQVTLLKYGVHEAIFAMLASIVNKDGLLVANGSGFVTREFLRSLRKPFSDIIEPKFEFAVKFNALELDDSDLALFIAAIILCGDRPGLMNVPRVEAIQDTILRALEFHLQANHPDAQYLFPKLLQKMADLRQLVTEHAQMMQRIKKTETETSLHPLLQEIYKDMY
Method in brief: as §1

Row | EC50 (Gal-4 hPPARα) [nM] | EC50 (Gal-4 hPPARγ) [nM] | EC50 (Gal-4 hPPARβ/δ) [nM] | SMILES
1 | 51 to 200 | > 1000 | > 1000 | CCCc1nn(Cc2ccc(C(F)(F)F)cc2)cc1COC(=O)c1ccc(SC(C)(C)C(=O)O)cc1 [Compound 12, 2-methyl-2-(4-(((3-propyl-1-(4-(trifluoromethyl)benzyl)-1H-pyrazol-4-yl)methoxy)carbonyl)phenylthio)propanoic acid]
2 | 51 to 200 | > 1000 | > 1000 | COC(c1ccc(Cn2cc(COC(=O)c3ccc(SC(C)(C)C(=O)O)cc3)nn2)cc1)(C(F)(F)F)C(F)(F)F [Compound 75, 2-(4-(((1-(4-(1,1,1,3,3,3-hexafluoro-2-methoxypropan-2-yl)benzyl)-1H-1,2,3-triazol-4-yl)methoxy)carbonyl)phenylthio)-2-methylpropanoic acid]
3 | 1 to 50 | > 1000 | > 1000 | Cc1ccc(Cn2cc([C@@H](C)OC(=O)c3ccc(SC(C)(C)C(=O)O)cc3)nn2)cc1 [Compound 87, (R)-2-methyl-2-(4-((1-(1-(4-methylbenzyl)-1H-1,2,3-triazol-4-yl)ethoxy)carbonyl)phenylthio)propanoic acid]
4 | 1 to 50 | > 1000 | > 1000 | CCCCCCn1c(COC(=O)c2ccc(OC(C)(C)C(=O)O)cc2)nn(Cc2ccc(C)cc2)c1=O [Compound 151, 2-(4-(((4-hexyl-1-(4-methylbenzyl)-5-oxo-4,5-dihydro-1H-1,2,4-triazol-3-yl)methoxy)carbonyl)phenoxy)-2-methylpropanoic acid]
5 | 1 to 50 | 51 to 200 | > 1000 | CCCCCCn1c(COC(=O)c2ccc(SC(C)(C)C(=O)O)cc2)nn(Cc2ccc(C)cc2)c1=O [Compound 160, 2-(4-(((4-hexyl-1-(4-methylbenzyl)-5-oxo-4,5-dihydro-1H-1,2,4-triazol-3-yl)methoxy)carbonyl)phenylthio)-2-methylpropanoic acid]
6 | 1 to 50 | 51 to 200 | > 1000 | CCCCCCCCn1c(COC(=O)c2ccc(OC(C)(C)C(=O)O)c(OC)c2)nn(Cc2ccc(C)cc2)c1=O [Compound 186, 2-(2-methoxy-4-(((1-(4-methylbenzyl)-4-octyl-5-oxo-4,5-dihydro-1H-1,2,4-triazol-3-yl)methoxy)carbonyl)phenoxy)-2-methylpropanoic acid]
7 | 1 to 50 | 1 to 50 | > 1000 | CCCCCCCn1c(COC(=O)c2ccc(SC(C)(C)C(=O)O)cc2)nn(Cc2ccc(C(C)(C)C)cc2)c1=O [Compound 189, 2-(4-(((1-(4-tert-butylbenzyl)-4-heptyl-5-oxo-4,5-dihydro-1H-1,2,4-triazol-3-yl)methoxy)carbonyl)phenylthio)-2-methylpropanoic acid]
8 | 1 to 50 | > 1000 | > 1000 | CCCCCCCn1c(COC(=O)c2ccc(OC(C)(C)C(=O)O)cc2)nn(Cc2ccc(C(C)(C)C)cc2)c1=O [Compound 190, 2-(4-(((1-(4-tert-butylbenzyl)-4-heptyl-5-oxo-4,5-dihydro-1H-1,2,4-triazol-3-yl)methoxy)carbonyl)phenoxy)-2-methylpropanoic acid]
9 | 1 to 50 | > 1000 | > 1000 | CCCCCCCn1c(COC(=O)c2ccc(OC(C)(C)C(=O)O)cc2)nn(Cc2ccc(C)cc2)c1=O [Compound 192, 2-(4-(((4-heptyl-1-(4-methylbenzyl)-5-oxo-4,5-dihydro-1H-1,2,4-triazol-3-yl)methoxy)carbonyl)phenoxy)-2-methylpropanoic acid]

Further lines, the molecule ahead of its results:

Row | SMILES | EC50 (Gal-4 hPPARα) [nM] | EC50 (Gal-4 hPPARγ) [nM] | EC50 (Gal-4 hPPARβ/δ) [nM]
10 | Cc1ccc(Cn2cc(COC(=O)c3ccc(SC(C)(C)C(=O)O)cc3)cn2)cc1 [Compound 3, 2-methyl-2-(4-(((1-(4-methylbenzyl)-1H-pyrazol-4-yl)methoxy)carbonyl)phenylthio)propanoic acid] | 51 to 200 | > 1000 | > 1000
11 | Cc1ccc(Cn2cc(COC(=O)c3ccc(SC(C)(C)C(=O)O)cc3)nn2)cc1 [Compound 60, 2-methyl-2-(4-(((1-(4-methylbenzyl)-1H-1,2,3-triazol-4-yl)methoxy)carbonyl)phenylthio)propanoic acid] | 1 to 50 | > 1000 | > 1000
12 | CC(C)(Sc1ccc(C(=O)OCc2cn(Cc3ccc(C(F)(F)F)cc3)nn2)cc1)C(=O)O [Compound 67, 2-methyl-2-(4-(((1-(4-(trifluoromethyl)benzyl)-1H-1,2,3-triazol-4-yl)methoxy)carbonyl)phenylthio)propanoic acid] | 1 to 50 | > 1000 | > 1000
13 | CC(C)(Sc1ccc(C(=O)OCc2cn(Cc3ccc(C(C)(C)C)cc3)nn2)cc1)C(=O)O [Compound 69, 2-(4-(((1-(4-tert-butylbenzyl)-1H-1,2,3-triazol-4-yl)methoxy)carbonyl)phenylthio)-2-methylpropanoic acid] | 1 to 50 | > 1000 | > 1000
14 | CC(C)(Sc1ccc(C(=O)OCCc2cn(Cc3ccc(C(F)(F)F)cc3)nn2)cc1)C(=O)O [Compound 91, 2-methyl-2-(4-((2-(1-(4-(trifluoromethyl)benzyl)-1H-1,2,3-triazol-4-yl)ethoxy)carbonyl)phenylthio)propanoic acid] | 201 to 999 | > 1000 | > 1000
15 | CCCn1c(COC(=O)c2ccc(OC(C)(C)C(=O)O)cc2)nn(Cc2ccc(C(C)(C)C)cc2)c1=O [Compound 150, 2-(4-(((1-(4-tert-butylbenzyl)-5-oxo-4-propyl-4,5-dihydro-1H-1,2,4-triazol-3-yl)methoxy)carbonyl)phenoxy)-2-methylpropanoic acid] | 1 to 50 | > 1000 | > 1000
16 | CCCCCCCCn1c(COC(=O)c2ccc(OC(C)(C)C(=O)O)cc2)nn(Cc2ccc(C)cc2)c1=O [Compound 152, 2-methyl-2-(4-(((1-(4-methylbenzyl)-4-octyl-5-oxo-4,5-dihydro-1H-1,2,4-triazol-3-yl)methoxy)carbonyl)phenoxy)propanoic acid] | 51 to 200 | > 1000 | > 1000
17 | CCCn1c(COC(=O)c2ccc(SC(C)(C)C(=O)O)cc2)nn(Cc2ccc(C(C)(C)C)cc2)c1=O [Compound 159, 2-(4-(((1-(4-tert-butylbenzyl)-5-oxo-4-propyl-4,5-dihydro-1H-1,2,4-triazol-3-yl)methoxy)carbonyl)phenylthio)-2-methylpropanoic acid] | 1 to 50 | > 1000 | > 1000
18 | CCCCCCCCn1c(COC(=O)c2ccc(SC(C)(C)C(=O)O)cc2)nn(Cc2ccc(C)cc2)c1=O [Compound 161, 2-methyl-2-(4-(((1-(4-methylbenzyl)-4-octyl-5-oxo-4,5-dihydro-1H-1,2,4-triazol-3-yl)methoxy)carbonyl)phenylthio)propanoic acid] | 1 to 50 | 51 to 200 | 51 to 200
19 | CCCCCCn1c(COC(=O)c2ccc(SC(C)(C)C(=O)O)cc2)nn(Cc2ccc(C(C)(C)C)cc2)c1=O [Compound 187, 2-(4-(((1-(4-tert-butylbenzyl)-4-hexyl-5-oxo-4,5-dihydro-1H-1,2,4-triazol-3-yl)methoxy)carbonyl)phenylthio)-2-methylpropanoic acid] | 1 to 50 | 51 to 200 | > 1000
20 | CCCCCCn1c(COC(=O)c2ccc(OC(C)(C)C(=O)O)cc2)nn(Cc2ccc(C(C)(C)C)cc2)c1=O [Compound 188, 2-(4-(((1-(4-tert-butylbenzyl)-4-hexyl-5-oxo-4,5-dihydro-1H-1,2,4-triazol-3-yl)methoxy)carbonyl)phenoxy)-2-methylpropanoic acid] | 1 to 50 | > 1000 | > 1000
21 | CCCCCCCn1c(COC(=O)c2ccc(SC(C)(C)C(=O)O)cc2)nn(Cc2ccc(C)cc2)c1=O [Compound 191, 2-(4-(((4-heptyl-1-(4-methylbenzyl)-5-oxo-4,5-dihydro-1H-1,2,4-triazol-3-yl)methoxy)carbonyl)phenylthio)-2-methylpropanoic acid] | 1 to 50 | 51 to 200 | > 1000
